According to patent US8536172B2, “Inhibitors of JNK” (Roche Palo Alto LLC, priority 2009, dated 2013):

Target: Human JNK2α2 (Homo sapiens (Human), UniProt P45984)
Assay: JNK assay in vitro: phosphorylation of GST-ATF2 (19-96) with [γ-33P] ATP, JNK2
Assay type: biochemical
Settings: 1 nM enzyme, 1 μM ATF2, 8 μM ATP (Km), 30° C. 30 min
Method: JNK activity was measured by phosphorylation of GST-ATF2 (19-96) with [γ-^33P] ATP. […] Human JNK2α2 assay contains 1 nM enzyme, 1 μM ATF2, 8 μM ATP with 1 uCi [γ-^33P] ATP. Human JNK1α1 assay contains 2 nM enzyme, 1 μM ATF2, 6 μM ATP with 1 μCi [γ-^33P] ATP. Human JNK3 (Upstate Biotech #14-501M) assay contains 2 nM enzyme, 1 μM ATF2, 4 μM ATP with 1 μCi [γ-^33P] ATP. The enzyme assay was carried out in the presence or absence of several compound concentrations. JNK and compound were pre-incubated for 10 min., followed by initiation of the enzymatic reaction by adding ATP and the substrate. The reaction mixture was incubated at 30° C. for 30 min. At the end of incubation, the reaction was terminated by transferring 25 μl of the reaction mixture to 150 μl of 10% glutathione Sepharose® slurry (Amersham #27-4574-01) containing 135 mM EDTA. The reaction product was captured on the affinity resin, and washed on a filtration plate (Millipore, MABVNOB50) with phosphate buffered saline for six times to remove free radionucleotide. The incorporation of ^33P into ATF2 was quantified on a microplate scintillation counter (Packard Topcount). Compound inhibition potency on JNK was measured by IC50 value generated from ten concentration inhibition curves fitted into the 3-parameter model: % inhibition=Maximum/(1+(IC50/[Inhibitor])^slope). Data were analyzed on Microsoft Excel for parameter estimation.

Human JNK2α2, sequence (P45984 whole entry): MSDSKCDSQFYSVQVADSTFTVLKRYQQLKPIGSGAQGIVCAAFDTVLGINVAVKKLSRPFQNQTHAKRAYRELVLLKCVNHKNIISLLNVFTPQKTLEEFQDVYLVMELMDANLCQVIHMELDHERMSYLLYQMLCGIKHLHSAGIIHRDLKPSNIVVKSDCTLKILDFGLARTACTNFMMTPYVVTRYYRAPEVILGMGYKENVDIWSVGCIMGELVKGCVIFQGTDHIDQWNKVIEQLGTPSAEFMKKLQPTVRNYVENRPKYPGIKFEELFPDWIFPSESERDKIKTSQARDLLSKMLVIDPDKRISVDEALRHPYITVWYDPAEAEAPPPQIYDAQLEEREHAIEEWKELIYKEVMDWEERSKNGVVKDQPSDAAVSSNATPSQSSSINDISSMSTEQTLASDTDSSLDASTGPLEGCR

| Structure (SMILES) | IC50 [nM] |
| --- | --- |
| CS(=O)(=O)C1CCN(c2cccc3c2ccn3-c2ccnc(N[C@H]3CC[C@H](C(=O)N4CCN5CCCCC5C4)CC3)n2)CC1 (stereo partly drawn) [Compound I-50, (4-{4-[4-(4-Methanesulfonyl-piperidin-1-yl)-indol-1-yl]-pyrimidin-2-ylamino}-cyclohexyl)-(octahydro-pyrido[1,2-a]pyrazin-2-yl)-methanone] | 15.6 |
| N#CCC(=O)N1CCN(c2cccc3c2ccn3-c2ccnc(N[C@H]3CCC[C@@H](O)C3)n2)CC1 [Compound I-35, 3-(4-{1-[2-((1S,3R)-3-Hydroxy-cyclohexylamino)-pyrimidin-4-yl]-1H-indol-4-yl}-piperazin-1-yl)-3-oxo-propionitrile] | 177 |
| CS(=O)(=O)C1CCN(c2cccc3c2ccn3-c2ccnc(N[C@H]3CC[C@H](C(=O)N4CCN(C5CCC5)CC4)CC3)n2)CC1 [Compound I-49, (4-Cyclobutyl-piperazin-1-yl)-(4-{4-[4-(4-methanesulfonyl-piperidin-1-yl)-indol-1-yl]-pyrimidin-2-ylamino}-cyclohexyl)-methanone] | 59.8 |
| CS(=O)(=O)N[C@H]1CC[C@H](Nc2nccc(-n3ccc4c(N5CCNCC5)cccc43)n2)CC1 [Compound I-1, N-{4-[4-(4-Piperazin-1-yl-indol-1-yl)-pyrimidin-2-ylamino]-cyclohexyl}-methanesulfonamide] | 1430 |
| N#CCC(=O)O[C@@H]1CCC[C@H](Nc2nccc(-n3ccc4c(N5CCN(C(=O)CC#N)CC5)cccc43)n2)C1 [Compound I-33, Cyano-acetic acid (1R,3S)-3-(4-{4-[4-(2-cyano-acetyl)-piperazin-1-yl]-indol-1-yl}-pyrimidin-2-ylamino)-cyclohexyl ester] | 198 |
| COCCO[C@H]1CC[C@H](Nc2nccc(-n3ccc4c(N5CCN(C(=O)CC#N)CC5)cccc43)n2)CC1 [Compound I-40, 3-[4-(1-{2-[4-(2-Methoxy-ethoxy)-cyclohexylamino]-pyrimidin-4-yl}-1H-indol-4-yl)-piperazin-1-yl]-3-oxo-propionitrile] | 35 |
| COCCO[C@H]1CC[C@H](Nc2nccc(-n3ccc4c(N5CCN(C(C)=O)CC5)cccc43)n2)CC1 [Compound I-39, 1-[4-(1-{2-[4-(2-Methoxy-ethoxy)-cyclohexylamino]-pyrimidin-4-yl}-1H-indol-4-yl)-piperazin-1-yl]-ethanone] | 406 |
| CCN1CCN(C(=O)[C@H]2CC[C@H](Nc3nccc(-n4ccc5c(N6CCC(S(C)(=O)=O)CC6)cccc54)n3)CC2)CC1 [Compound I-46, (4-Ethyl-piperazin-1-yl)-(4-{4-[4-(4-methanesulfonyl-piperidin-1-yl)-indol-1-yl]-pyrimidin-2-ylamino}-cyclohexyl)-methanone] | 36 |
| CC(C)(C)N1CCN(C(=O)[C@H]2CC[C@H](Nc3nccc(-n4ccc5c(N6CCC(S(C)(=O)=O)CC6)cccc54)n3)CC2)CC1 [Compound I-48, (4-tert-Butyl-piperazin-1-yl)-(4-{4-[4-(4-methanesulfonyl-piperidin-1-yl)-indol-1-yl]-pyrimidin-2-ylamino}-cyclohexyl)-methanone] | 54.5 |
| CS(=O)(=O)C1CCN(c2cccc3c2ccn3-c2ccnc(N[C@H]3CC[C@H](C(=O)N4CCn5ccnc5C4)CC3)n2)CC1 [Compound I-54, (5,6-Dihydro-8H-imidazo[1,2-a]pyrazin-7-yl)-(4-{4-[4-(4-methanesulfonyl-piperidin-1-yl)-indol-1-yl]-pyrimidin-2-ylamino}-cyclohexyl)-methanone] | 15.2 |
| N#CCC(=O)N1CCN(c2cccc3c2ccn3-c2ccnc(N[C@H]3CC[C@H](CO)CC3)n2)CC1 [Compound I-27, 3-(4-{1-[2-(4-Hydroxymethyl-cyclohexylamino)-pyrimidin-4-yl]-1H-indol-4-yl}-piperazin-1-yl)-3-oxo-propionitrile] | 12.8 |
| CS(=O)(=O)N[C@H]1CC[C@H](Nc2nccc(-n3ccc4c(N5CCN(S(C)(=O)=O)CC5)cccc43)n2)CC1 [Compound I-3, N-(4-{4-[4-(4-Methanesulfonyl-piperazin-1-yl)-indol-1-yl]-pyrimidin-2-ylamino}-cyclohexyl)-methanesulfonamide] | 182 |
